Biological target: BCL6 (Homo sapiens (Human), UniProt P41182)
Assay: Immunofluorescence high content imaging of BCL6 degradation in T47D cells
Type: cell-based
Settings: for Dmax: T47D
Procedure, shortened: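 Seed T47D in RPMI1640-10% FBS to reach ~70-90% confluence at endpoint; add degrader next day (11-point 3-fold series, top 0.1 or 1 μM final) for 3 days. Then fix, permeabilize, stain BCL6 with nuclear Hoechst, and image.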

In the case of `CNC(=O)COc1cc2cc(Nc3nc(N4CCC(OC5CN(c6cccc7c6C(=O)N(C6CCC(=O)NC6=O)C7=O)C5)CC4)ncc3Cl)ccc2n(C)c1=O` (centres unmarked) [compound 255, 2-((6-((5-chloro-2-(4-((1-(2-(2,6-dioxopiperidin-3-yl)-1,3-dioxoisoindolin-4-yl)azetidin-3-yl)oxy)piperidin-1-yl)pyrimidin-4-yl)amino)-1-methyl-2-oxo-1,2-dihydroquinolin-3-yl)oxy)-N-methylacetamide], the IC50 is reported as < 10 nM and the Dmax is reported as < 50%.

With `CNC(=O)COc1cc2cc(Nc3nc(N4CCC(CN5CC6(C5)CN(c5cccc7c5C(=O)N(C5CCC(=O)NC5=O)C7=O)C6)CC4)ncc3Cl)ccc2n(C)c1=O` (centres unmarked) [compound 256, 2-((6-((5-chloro-2-(4-((6-(2-(2,6-dioxopiperidin-3-yl)-1,3-dioxoisoindolin-4-yl)-2,6-diazaspiro[3.3]heptan-2-yl)methyl)piperidin-1-yl)pyrimidin-4-yl)amino)-1-methyl-2-oxo-1,2-dihydroquinolin-3-yl)oxy)-N-methylacetamide] the IC50 was < 10 nM and the Dmax was 50 to 70%.

With `CC(=O)COc1cc2cc(Nc3nc(N4CCN(C(C)(C)C5CCN(c6ccc7c(c6)C(=O)N(C6CCC(=O)NC6=O)C7=O)CC5)CC4)ncc3Cl)ccc2n(C)c1=O` (centres unmarked) [compound 257, 5-(4-(2-(4-(5-chloro-4-((1-methyl-2-oxo-3-(2-oxopropoxy)-1,2-dihydroquinolin-6-yl)amino)pyrimidin-2-yl)piperazin-1-yl)propan-2-yl)piperidin-1-yl)-2-(2,6-dioxopiperidin-3-yl)isoindoline-1,3-dione] the IC50 was 10 to 50 nM and the Dmax was ≥ 70%.

`CN1CC[C@@H](Oc2cc3cc(Nc4nc(N5CCC(CN6CCN(c7ccc8c(c7)C(=O)N(C7CCC(=O)NC7=O)C8=O)CC6)CC5)ncc4Cl)ccc3n(C)c2=O)C1=O` (stereo partly drawn) [compound 258, 5-(4-((1-(5-chloro-4-((1-methyl-3-(((R)-1-methyl-2-oxopyrrolidin-3-yl)oxy)-2-oxo-1,2-dihydroquinolin-6-yl)amino)pyrimidin-2-yl)piperidin-4-yl)methyl)piperazin-1-yl)-2-(2,6-dioxopiperidin-3-yl)isoindoline-1,3-dione] was tested, and the IC50 was ≥ 100 nM.

`CN1CC[C@H](Oc2cc3cc(Nc4nc(N5CCC(CN6CCN(c7ccc8c(c7)C(=O)N(C7CCC(=O)NC7=O)C8=O)CC6)CC5)ncc4Cl)ccc3n(C)c2=O)C1=O` (stereo partly drawn) [compound 259, 5-(4-((1-(5-chloro-4-((1-methyl-3-(((S)-1-methyl-2-oxopyrrolidin-3-yl)oxy)-2-oxo-1,2-dihydroquinolin-6-yl)amino)pyrimidin-2-yl)piperidin-4-yl)methyl)piperazin-1-yl)-2-(2,6-dioxopiperidin-3-yl)isoindoline-1,3-dione] was tested, and the IC50 was ≥ 100 nM and the Dmax was < 50%.

For `CNC(=O)COc1cc2cc(Nc3nc(N4CCC(CN5CCN(c6cccc7c6C(=O)N(C6CCC(=O)NC6=O)C7=O)CC5)CC4)ncc3Cl)ccc2n(C)c1=O` (centres unmarked) [compound 260, 2-((6-((5-chloro-2-(4-((4-(2-(2,6-dioxopiperidin-3-yl)-1,3-dioxoisoindolin-4-yl)piperazin-1-yl)methyl)piperidin-1-yl)pyrimidin-4-yl)amino)-1-methyl-2-oxo-1,2-dihydroquinolin-3-yl)oxy)-N-methylacetamide], the IC50 was 10 to 50 nM and the Dmax was ≥ 70%.

With `CNC(=O)CNc1cc2cc(Nc3nc(N4CCN(CC5CCN(c6ccc7c(c6)C(=O)N(C6CCC(=O)NC6=O)C7=O)CC5)CC4)ncc3Cl)ccc2n(C)c1=O` (centres unmarked) [compound 262, 2-((6-((5-chloro-2-(4-((1-(2-(2,6-dioxopiperidin-3-yl)-1,3-dioxoisoindolin-5-yl)piperidin-4-yl)methyl)piperazin-1-yl)pyrimidin-4-yl)amino)-1-methyl-2-oxo-1,2-dihydroquinolin-3-yl)amino)-N-methylacetamide] the IC50 was < 10 nM and the Dmax was ≥ 70%.

In the case of `CNC(=O)COc1cc2cc(Nc3nc(N4CCC(OC5CCN(c6cccc7c6C(=O)N(C6CCC(=O)NC6=O)C7=O)CC5)CC4)ncc3Cl)ccc2n(C)c1=O` (centres unmarked) [compound 264, 2-((6-((5-chloro-2-(4-((1-(2-(2,6-dioxopiperidin-3-yl)-1,3-dioxoisoindolin-4-yl)piperidin-4-yl)oxy)piperidin-1-yl)pyrimidin-4-yl)amino)-1-methyl-2-oxo-1,2-dihydroquinolin-3-yl)oxy)-N-methylacetamide], the IC50 is reported as < 10 nM and the Dmax is reported as ≥ 70%.

Work on `CONC(=O)COc1cc2cc(Nc3cc(N4CCN(C(C)(C)C5CCN(c6ccc7c(c6)C(=O)N(C6CCC(=O)NC6=O)C7=O)CC5)CC4)ncc3Cl)ccc2n(C)c1=O` (centres unmarked) [compound 265, 2-((6-((5-chloro-2-(4-(2-(1-(2-(2,6-dioxopiperidin-3-yl)-1,3-dioxoisoindolin-5-yl)piperidin-4-yl)propan-2-yl)piperazin-1-yl)pyridin-4-yl)amino)-1-methyl-2-oxo-1,2-dihydroquinolin-3-yl)oxy)-N-methoxyacetamide] yielded an IC50 of 10 to 50 nM and a Dmax of 50 to 70%.

For `CNC(=O)COc1cc2cc(Nc3nc(N4CCN(C(C)(C)C5CCN(c6cccc7c6C(=O)N(C6CCC(=O)NC6=O)C7=O)CC5)CC4)ncc3Cl)ccc2n(C)c1=O` (centres unmarked) [compound 266, 2-((6-((5-chloro-2-(4-(2-(1-(2-(2,6-dioxopiperidin-3-yl)-1,3-dioxoisoindolin-4-yl)piperidin-4-yl)propan-2-yl)piperazin-1-yl)pyrimidin-4-yl)amino)-1-methyl-2-oxo-1,2-dihydroquinolin-3-yl)oxy)-N-methylacetamide], the IC50 was < 10 nM and the Dmax was ≥ 70%.

With `Cn1c(=O)c(-c2nnc[nH]2)cc2cc(Nc3nc(N4CCC(CN5CCN(c6ccc7c(c6)C(=O)N(C6CCC(=O)NC6=O)C7=O)CC5)CC4)ncc3Cl)ccc21` (centres unmarked) [compound 282, 5-(4-{[1-(5-chloro-4-{[1-methyl-2-oxo-3-(4H-1,2,4-triazol-3-yl)-1,2-dihydroquinolin-6-yl]amino}pyrimidin-2-yl)piperidin-4-yl]methyl}piperazin-1-yl)-2-(2,6-dioxopiperidin-3-yl)-2,3-dihydro-1H-isoindole-1,3-dione] the IC50 was ≥ 100 nM.

`CNC(=O)COc1cc2cc(Nc3nc(N4CCC(CN5CCC(n6cnc7c(C(=O)NC8CCC(=O)NC8=O)cccc76)CC5)CC4)ncc3Cl)ccc2n(C)c1=O` (centres unmarked) [compound 283, 1-[1-({1-[5-chloro-4-({1-methyl-3-[(methylcarbamoyl)methoxy]-2-oxo-1,2-dihydroquinolin-6-yl}amino)pyrimidin-2-yl]piperidin-4-yl}methyl)piperidin-4-yl]-N-(2,6-dioxopiperidin-3-yl)-1H-1,3-benzodiazole-4-carboxamide] was tested, and the IC50 was ≥ 100 nM.

In the case of `CNC(=O)COc1cc2cc(Nc3nc(N4C[C@@H](C)N(CC5CCN(c6ccc(C(=O)NC7CCC(=O)NC7=O)c(F)c6)CC5)[C@@H](C)C4)ncc3Cl)ccc2n(C)c1=O` (stereo partly drawn) [compound 284, 4-(4-{[(2R,6S)-4-[5-chloro-4-({1-methyl-3-[(methylcarbamoyl)methoxy]-2-oxo-1,2-dihydroquinolin-6-yl}amino)pyrimidin-2-yl]-2,6-dimethylpiperazin-1-yl]methyl}piperidin-1-yl)-N-(2,6-dioxopiperidin-3-yl)-2-fluorobenzamide], the IC50 is reported as 10 to 50 nM and the Dmax is reported as < 50%.

With `Cc1nnc(-c2cc3cc(Nc4nc(N5CCN(C(C)(C)C6CCN(c7ccc8c(c7)C(=O)N(C7CCC(=O)NC7=O)C8=O)CC6)CC5)ncc4Cl)ccc3n(C)c2=O)o1` (centres unmarked) [compound 285, 5-(4-{2-[4-(5-chloro-4-{[1-methyl-3-(5-methyl-1,3,4-oxadiazol-2-yl)-2-oxo-1,2-dihydroquinolin-6-yl]amino}pyrimidin-2-yl)piperazin-1-yl]propan-2-yl}piperidin-1-yl)-2-(2,6-dioxopiperidin-3-yl)-2,3-dihydro-1H-isoindole-1,3-dione] the IC50 was 10 to 50 nM and the Dmax was < 50%.

With `CNC(=O)COc1cc2cc(Nc3nc(N4CCC(CN5CCC(c6coc(C(=O)NC7CCC(=O)NC7=O)c6)CC5)CC4)ncc3Cl)ccc2n(C)c1=O` (centres unmarked) [compound 286, 4-[1-({1-[5-chloro-4-({1-methyl-3-[(methylcarbamoyl)methoxy]-2-oxo-1,2-dihydroquinolin-6-yl}amino)pyrimidin-2-yl]piperidin-4-yl}methyl)piperidin-4-yl]-N-(2,6-dioxopiperidin-3-yl)furan-2-carboxamide] the IC50 was 50 to 100 nM and the Dmax was < 50%.

For `CNC(=O)CCC1Oc2cc(Nc3nc(N4CCN(C(C)(C)C5CCN(c6ccc7c(c6)C(=O)N(C6CCC(=O)NC6=O)C7=O)CC5)CC4)ncc3Cl)ccc2N(C)C1=O` (centres unmarked) [compound 287, 3-[7-({5-chloro-2-[4-(2-{1-[2-(2,6-dioxopiperidin-3-yl)-1,3-dioxo-2,3-dihydro-1H-isoindol-5-yl]piperidin-4-yl}propan-2-yl)piperazin-1-yl]pyrimidin-4-yl}amino)-4-methyl-3-oxo-3,4-dihydro-2H-1,4-benzoxazin-2-yl]-N-methylpropanamide], the IC50 was ≥ 100 nM.

For `CNC(=O)COc1cc2cc(Nc3nc(N4CCC(CN5[C@H](C)CN(c6ccc(C(=O)NC7CCC(=O)NC7=O)c(F)c6)C[C@@H]5C)CC4)ncc3Cl)ccc2n(C)c1=O` (stereo partly drawn) [compound 288, 4-[(3R,5S)-4-({1-[5-chloro-4-({1-methyl-3-[(methylcarbamoyl)methoxy]-2-oxo-1,2-dihydroquinolin-6-yl}amino)pyrimidin-2-yl]piperidin-4-yl}methyl)-3,5-dimethylpiperazin-1-yl]-N-(2,6-dioxopiperidin-3-yl)-2-fluorobenzamide], the IC50 was 50 to 100 nM and the Dmax was 50 to 70%.

In the case of `CNC(=O)COc1cc2cc(Nc3nc(N4CCC(CN5CCC(c6ccc7c(c6)C(=O)N(C6CCC(=O)NC6=O)C7=O)CC5)CC4)ncc3Cl)ccc2n(C)c1=O` (centres unmarked) [compound 289, 2-{[6-({5-chloro-2-[4-({4-[2-(2,6-dioxopiperidin-3-yl)-1,3-dioxo-2,3-dihydro-1H-isoindol-5-yl]piperidin-1-yl}methyl)piperidin-1-yl]pyrimidin-4-yl}amino)-1-methyl-2-oxo-1,2-dihydroquinolin-3-yl]oxy}-N-methylacetamide], the IC50 is reported as 10 to 50 nM and the Dmax is reported as ≥ 70%.

— patent publication US12310975B2, “Modulators of BCL6 proteolysis and associated methods of use” (Arvinas Operations, Inc., priority 2019, dated 2025)
